Values of other authors, collected in patent US8008021B2, “N-terminal truncation of cardiac troponin subunits and their roles in cardiovascular disease” (Evanston Northwestern Healthcare, priority 2006, dated 2011).

Biological target: T1, m-calpain (Homo sapiens, UniProt P17655)
T1 sequence (P17655 1-700): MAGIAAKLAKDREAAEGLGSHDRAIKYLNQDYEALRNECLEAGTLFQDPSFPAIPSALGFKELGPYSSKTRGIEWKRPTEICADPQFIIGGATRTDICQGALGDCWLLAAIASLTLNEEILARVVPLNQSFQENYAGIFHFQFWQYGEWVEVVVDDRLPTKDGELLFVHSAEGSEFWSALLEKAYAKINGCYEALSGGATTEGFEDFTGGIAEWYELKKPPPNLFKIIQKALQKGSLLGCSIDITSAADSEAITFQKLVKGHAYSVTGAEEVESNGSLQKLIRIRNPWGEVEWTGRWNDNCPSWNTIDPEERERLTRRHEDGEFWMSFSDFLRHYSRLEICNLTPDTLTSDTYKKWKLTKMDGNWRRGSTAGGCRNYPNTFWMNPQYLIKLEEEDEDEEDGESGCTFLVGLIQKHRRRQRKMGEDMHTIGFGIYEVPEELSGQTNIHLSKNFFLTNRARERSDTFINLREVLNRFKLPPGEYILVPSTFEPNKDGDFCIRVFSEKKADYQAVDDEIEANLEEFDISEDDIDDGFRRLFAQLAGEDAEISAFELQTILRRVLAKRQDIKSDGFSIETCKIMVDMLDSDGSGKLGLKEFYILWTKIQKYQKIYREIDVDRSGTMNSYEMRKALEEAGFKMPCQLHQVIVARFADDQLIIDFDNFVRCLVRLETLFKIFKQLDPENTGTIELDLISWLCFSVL
T1 sequence (P04632 1-268 partner): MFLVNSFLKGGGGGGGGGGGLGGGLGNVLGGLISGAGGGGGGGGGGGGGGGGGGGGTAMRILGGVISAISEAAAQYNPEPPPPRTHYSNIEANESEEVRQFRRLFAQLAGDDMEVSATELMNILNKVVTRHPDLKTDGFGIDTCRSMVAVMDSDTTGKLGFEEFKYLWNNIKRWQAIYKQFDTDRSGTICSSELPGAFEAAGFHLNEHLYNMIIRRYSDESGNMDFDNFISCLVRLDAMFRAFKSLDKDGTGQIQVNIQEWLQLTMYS
Settings: reference 43; read-out: apparent inhibition constant Ki against m-calpain; cited from earlier work

SMILES	Ki [µM]
O=C(O)/C(S)=C/c1ccc(I)cc1 [PD150606]	0.37 ± 0.03
O=C(O)/C(S)=C/c1c[nH]c2ccc(F)cc12 [PD151746]	5.33 ± 0.77
